The values below come from ChEMBL document CHEMBL1201862, “PubChem BioAssay data set” (2004).

Among the test systems are OVCAR-8; SF-295; MDA-MB-435; HCT-116; KM12; SR; A549; DU-145; SF-268; BT-549; NCI-H226; CCRF-CEM; UO-31; NCI-H460; NCI-H522; SK-OV-3; HOP-92; SK-MEL-2; OVCAR-4; OVCAR-3.
Common to all, as to assay: NCI tumour cell line growth inhibition, 48 h

Structures are written as SMILES.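 A five-concentration, 48-hour dose response in 96-well plates underlies each endpoint, interpolated linearly between surrounding concentrations. GI50 is the concentration that inhibits growth by half.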 Active and inactive are the calls of the source. Rule as the data show it: active = GI50 up to about 1.1 µM and inactive = higher.

Consider `Cc1nn(C(=O)Cc2ccccc2)c2c1C(c1ccccc1[N+](=O)[O-])SC(=N)N2` (stereo not given), for which the GI50 in the test on OVCAR-8, in the test on SF-295, in the test with MDA-MB-435, in the test on HCT-116, with KM12 and in the test on SR was > 100 µM (inactive) each time. Moreover, the GI50 in the test with A549, in the test on DU-145, in the test with SF-268, in the test with BT-549, in the test with NCI-H226 and in the test with CCRF-CEM was > 100 µM (inactive) throughout. Moreover, the GI50 in the test with UO-31, in the test with NCI-H460, in the test with NCI-H522 and in the test with SK-OV-3 was > 100 µM (inactive) in each case.

With `O=C(/C=C1\C[C@H]2C=Nc3ccccc3C(=O)N2C1)NCCCCNC(=O)/C=C1\C[C@H]2C=Nc3ccccc3C(=O)N2C1`, the GI50 in the test on OVCAR-8 is 4.93 µM (inactive); with SF-295 it was 19.5 µM (inactive); in the test on MDA-MB-435 it was 7.4 µM (inactive); in the test on HCT-116, 12.3 µM (inactive); with HOP-92 it was 7.93 µM (inactive); in the test on SK-MEL-2 it was 15.2 µM (inactive). In addition, the GI50 in the test on KM12 was 17.5 µM (inactive); with A549, 20.7 µM (inactive); in the test on DU-145, 15.2 µM (inactive); in the test with SF-268, 9.95 µM (inactive); in the test with BT-549, 12.9 µM (inactive); in the test on NCI-H226 it was 13.8 µM (inactive). Besides, the GI50 with CCRF-CEM was 1.39 µM (inactive); with OVCAR-4, 8.99 µM (inactive); in the test on UO-31, 2.39 µM (inactive); with OVCAR-3, 7.82 µM (inactive); in the test on NCI-H460, 17.7 µM (inactive); in the test on NCI-H522, 1.4 µM (inactive). Besides, the GI50 in the test on SK-OV-3 is 18.3 µM (inactive).

`CN1CCN(c2ccc3nc(C4=C(O)C(=O)c5c(nc(CO)n5C)C4=O)[nH]c3n2)CC1`: the GI50 in the test on OVCAR-8 is > 100 µM (inactive); in the test with SF-295, > 100 µM (inactive); in the test on MDA-MB-435, > 100 µM (inactive); in the test with HCT-116, > 100 µM (inactive); with HOP-92, > 100 µM (inactive); in the test with SK-MEL-2 it was 55.1 µM (inactive). The GI50 in the test with KM12, in the test with A549, in the test with DU-145, in the test with SF-268, in the test with BT-549 and with NCI-H226 was > 100 µM (inactive) throughout. Moreover, the GI50 in the test with CCRF-CEM, with OVCAR-4, in the test with UO-31, in the test on OVCAR-3, in the test with NCI-H460 and in the test with NCI-H522 was > 100 µM (inactive) each time. Further, the GI50 with SK-OV-3 is > 100 µM (inactive).

Regarding `CCCCCCNC(=O)c1cc(NCc2cc(OC)ccc2OC)ccc1O`, the GI50 is 20.7 µM (inactive) with OVCAR-8; 12 µM (inactive) in the test on SF-295; 18.9 µM (inactive) with MDA-MB-435; 21.1 µM (inactive) in the test on HCT-116; 6.98 µM (inactive) with HOP-92; 21.7 µM (inactive) in the test with SK-MEL-2. For the same compound, the GI50 with KM12 was 24.8 µM (inactive); in the test on A549 it was 29.6 µM (inactive); in the test with DU-145, 24.2 µM (inactive); in the test on SF-268 it was 13.3 µM (inactive); in the test with BT-549, 15.5 µM (inactive); with NCI-H226, 20 µM (inactive). The GI50 in the test with CCRF-CEM is 20.5 µM (inactive); with OVCAR-4, 22.8 µM (inactive); in the test on UO-31, 17.7 µM (inactive); in the test with OVCAR-3, 0.865 µM (active); in the test with NCI-H460 it was 24.7 µM (inactive); in the test with NCI-H522 it was 14.3 µM (inactive). The GI50 with SK-OV-3 was 13.1 µM (inactive).

Regarding `O=C(/C=C1\N=C(c2ccccc2)N(c2ccc3c(c2)Sc2cc(N4C(=O)/C(=C/C(=O)/C=C/c5ccccc5)N=C4c4ccccc4)ccc2N3)C1=O)/C=C/c1ccccc1`, the GI50 is 42.5 µM (inactive) in the test with OVCAR-8; 23.4 µM (inactive) in the test with SF-295; 22 µM (inactive) with MDA-MB-435; > 100 µM (inactive) with HCT-116; 67.5 µM (inactive) in the test on HOP-92; 18.4 µM (inactive) in the test on SK-MEL-2. Further, the GI50 in the test on KM12 is > 100 µM (inactive); in the test on A549, > 100 µM (inactive); with DU-145, > 100 µM (inactive); with SF-268, 69.5 µM (inactive); with BT-549, 23.5 µM (inactive); in the test with CCRF-CEM, 24.4 µM (inactive). Also, the GI50 in the test on OVCAR-4 was 20.8 µM (inactive); in the test on UO-31, 81.1 µM (inactive); in the test on OVCAR-3 it was 24.9 µM (inactive); with NCI-H460, 58.7 µM (inactive); in the test on NCI-H522, 20.9 µM (inactive); in the test on SK-OV-3, 18.3 µM (inactive).

Take `C=CCOCn1ccc(N)nc1=O`: the GI50 in the test on OVCAR-8, in the test on SF-295, with MDA-MB-435, with HCT-116, in the test on KM12 and in the test on SR was > 100 µM (inactive) in each case. Besides, the GI50 in the test with A549, with DU-145, in the test on SF-268, in the test with BT-549, in the test on NCI-H226 and with CCRF-CEM was > 100 µM (inactive) each time. Moreover, the GI50 in the test on UO-31, in the test on NCI-H522 and with SK-OV-3 was > 100 µM (inactive) throughout.

For the compound `CCCSC1=N/C(=C\c2ccco2)C(=O)N1`, the GI50 in the test with OVCAR-8, in the test with SF-295, in the test on MDA-MB-435, in the test with HCT-116, in the test on HOP-92 and in the test with SK-MEL-2 was > 100 µM (inactive) each time. For the same compound, the GI50 in the test with KM12, in the test on A549, with DU-145, with SF-268, in the test on BT-549 and with NCI-H226 was > 100 µM (inactive) throughout. Besides, the GI50 in the test with OVCAR-4, with UO-31, in the test with OVCAR-3, in the test on NCI-H460, in the test on NCI-H522 and in the test on SK-OV-3 was > 100 µM (inactive) throughout.

On to `O=c1c(C(c2ccc(O)cc2)c2c(O)oc3ccccc3c2=O)c(O)oc2ccccc12`, for which the GI50 with OVCAR-8 is 48.8 µM (inactive); in the test on MDA-MB-435, 98.9 µM (inactive); in the test on HCT-116, > 100 µM (inactive); in the test with HOP-92, 78.5 µM (inactive); in the test with SK-MEL-2 it was > 100 µM (inactive); with KM12, > 100 µM (inactive). In addition, the GI50 with DU-145 was > 100 µM (inactive); with SF-268, 16.2 µM (inactive); in the test on BT-549, 59.8 µM (inactive); in the test with NCI-H226, > 100 µM (inactive); with CCRF-CEM it was 74.3 µM (inactive); in the test on OVCAR-4, > 100 µM (inactive). In addition, the GI50 in the test on UO-31 was > 100 µM (inactive); in the test on OVCAR-3, 76.9 µM (inactive); in the test with NCI-H460, > 100 µM (inactive); in the test with NCI-H522, 22.5 µM (inactive).
